Source: patent US20080009546A1 (Chevron U.S.A. Inc., priority 2005, published 2008)
Where two headings read alike, the source gives them in different places.

Columns and labels:
NMDA receptor = assay: [3H]MK-801 binding assay, NMDA receptors in guinea pig brain membranes; conditions: for Relative affinity: compared to that of Memantine
Method: Hartley guinea pigs were sacrificed, and their brains were quickly removed and weighed. The brains then were homogenized in 50 mM Tris HCl buffer, pH 7.7, using a Polytron homogenizer. The homogenate was centrifuged at 40,000×g for 15 min, rehomogenized, and centrifuged again. The final pellet was resuspended in Tris-HCl, pH 7.7, at a final concentration of 6.67 mg original wet weight of tissue/ml. […] The samples were then filtered through glass fiber filters on a Tomtec cell harvester. The filters were washed 3 times with 3 ml of cold buffer. Filters were dried overnight and counted next day on a Wallac Betaplate Reader.
The binding experiments were conducted as follows. […] For each compound, graphs were prepared containing individual competition curves obtained for that compound. IC50 values and Hill coefficients were calculated using the program Prism. Ki values were calculated using the Chang Prusoff transformation: Ki=IC50/(1+L/Kd)
where L is radioligand concentration and Kd is the binding affinity of the radioligand, as determined previously by saturation analysis. […] In each experiment, one standard compound was simultaneously run on each 96 well plate.

[1] = system: primary neurons from rat cerebral cortex; assay: NMDA-induced LDH release assay in primary cortical neurons (neuroprotection); type: cell-based; set-up: Total LDH (Avg): unit not given here; conditions: for % (Control Wash = 100) / Secreted LDH (Avg) / Secreted/(total + secreted) (Avg) / Total LDH (Avg): MDT compound 30 uM, 24 hour incubation
Method: The neuroprotective properties of drugs have been studied in vitro, using neurons cultured from cortex, cerebellum or retina. […] Neurotoxicity is determined in this assay by measuring lactate dehydrogenase (LDH), a method which is simple, accurate and reproducible. We conducted pilot studies to test if poly-lysine-coated plates would be suitable as a matrix upon which to plate fetal neurons, compared to astrocyte-coated plates. We also compared the use of growth medium to neurobasal medium supplemented with B27 in the pilot experiments. The concentrations of NMDA (300-500 μM), glycine (10-50 μM), and memantine (10-100 μM) were varied, and optimum concentrations and times determined from these pilot studies were then chosen for the main study. The assay is described below.
Fetal rat neocortical cells were cultured on a mouse astroglial feeder layer. To obtain mouse astroglial cells for the feeder layer, cortices were harvested from 1-day old Swiss Webster mice (Charles River, Hollister, Calif.) according to the procedure described by Rose et al (1993). After dissecting cortices in ice-cold dissecting medium, they were minced and incubated in 0.09% trypsin in media stock for 1 hr, followed by resuspension in growth medium containing 10% equine serum and 10% fetal bovine serum. A single-cell suspension was obtained by triturating through fire-bored glass pipettes, and the resulting cell suspension was plated at a density of 0.5-0.75 hemispheres/24-well plate/9.6 ml, with 0.4 ml/well. Plates were incubated in a humidified incubator at 37° C., 5% CO2. Astroglial cells become confluent in about 2-3 weeks, at which time these cultures are ready to be used as feeder layers upon which neuronal cultures can be plated. Neuronal cells were obtained from gestational Sprague-Dawley rats E16-E18, using a similar dissection procedure. Rat embryos were dissected to obtain cortical tissue, which was plated as a single-cell suspension at a density of 1.4 hemispheres/24-well plate/9.6 ml, with 0.4 ml/well. These cells were plated on the existing astroglial feeder layer, and were incubated at 37° C., 5% CO2. After 5 days in culture, cytosine arabinoside (10 μM) was added to the wells to inhibit glial cell proliferation, and after 24 hours, the medium was replaced with fresh growth medium. Cells were fed with fresh growth medium every 2 days, until the experiments were performed. For coating plates with poly-lysine, we used poly-d-lysine hydrobromide (Sigma Cat # P7280) at a concentration of 0.1 mg/ml to coat each well using a minimum volume of 0.2 ml/well. After coating for 5 minutes, the solution was aspirated and wells were rinsed thoroughly with sterile tissue culture grade water. After drying for 2 hours, plates were ready for use. Neuronal cultures were plated onto poly-lysine-coated plates at the same density as above. For the pilot study, some of the cultures were fed with 1:1 ratio of growth medium: neurobasal medium (GIBCO)+B-27 supplement (2%), while the rest of the cultures were fed with growth medium alone (Losi et al., 2006). For the main study, we used astroglial feeder layers to plate the neuronal cultures, and used a mix (1:1) of growth medium with neurobasal medium+B-27 supplement for feeding the cultures.
After 11-14 days in culture, neuronal cells were confluent and experiments were performed. Cells were washed twice using sterile Locke's buffer (154 mM NaCl, 5.6 mM KCl, 2.3 mM CaCl2, 3.6 mM NaHCO3, 5.5 mM D-glucose, 5 mM HEPES, pH 7.4), and then exposed to the various treatment compounds. […] After 15 minutes, cultures were washed twice and incubated overnight in media stock. After 24 hours, supernatants and lysates were collected to measure LDH activity. LDH activity was measured by the reduction of NAD, which was utilized in the stoichiometric conversion of a tetrazolium dye using a kit (Sigma TOX-7). Supernatants were removed from the wells and centrifuged before LDH measurements. The adherent cells were lysed to obtain total LDH. […]

[2] = guinea pig brain membrane preparation (Table 29), read-out: Ki
[3] = [3H]MK-801 (1 nM), guinea pig brain membrane preparation, read-out: Ki (binding affinity)
[4] = Plate #5, astrocyte-coated rat neurons, GM fed
[5] = Plate #4, poly-lysine-coated rat neurons, GM/NB + B-27 fed
[6] = astrocyte-coated rat neurons, GM/NB + B-27 fed

Row | Ki (NMDA receptor; [2]) | Relative affinity (NMDA receptor) | Compound | further results
1 | > 1000 µM | – | CC12CC3C4CC5(C)CC3C(C1)C(O)(C5)C4C2 [MDT-47, 4,9-dimethyl-1-hydroxydiamantane] | –
2 | – | 0.002 | NC12CC3C4CC5C6CC7CC5C(C4C1)C(C7)(C2)C63 [MDT-49, 9-amino-triamantane] | Ki (NMDA receptor; [3]): 389 µM
3 | > 1000 µM | – | OC12CC3C4CC5C6CC7CC5C(C4C1)C(C7)(C2)C63 [MDT-42] | –
4 | 7.3 ± 1.1 µM | 0.100 | CC12CC3CC4C1CC1(CN)CC2C(C3)C4(C)C1 [MDT-65] | –
5 | 11.4 ± 3.7 µM | 0.064 | mixture of 1-amino-4-methyldiamantane and 2-amino-4-methyldiamantane [MDT-32] | –
6 | > 1000 µM | – | CC12CC3C4CC5(C)CC3C(C1)C(C(=O)O)(C5)C4C2 [MDT-52, 4,9-dimethyl-1-diamantanecarboxylic acid] | –
7 | – | 0.038 | 2-aminotriamantane [MDT-50] | EC50 ([1]; two experiments, 300 uM NMDA + 50 μM glycine 15 minutes, LDH after 24 hours, read-out: average EC50 (±SD), NMDA-induced LDH release): 107 ± 88.3 µM; Ki (NMDA receptor; [3]): 19.1 µM
8 | > 1000 µM | – | CC12CC3C4CC5CC3C(C1)C(C5)C4C2 [MDT-60] | –
9 | > 1000 µM | – | OC12CC3CC4C1CC1C5CC6CC1C2C(C6)(C3)C54 (centres unmarked) [MDT-41] | –
10 | 98.6 ± 0.1 µM | 0.007 | CC12CC3CC4C1CC1(O)CC2C(C3)C4(C)C1 [MDT-45, 1,6-dimethyl-4-hydroxydiamantane] | –
11 | > 1000 µM | – | CC12CC3(N)CC4C5CC(N)(CC41)CC2C5C3 [MDT-28, 1-methyl-4,9-diaminodiamantane] | –
12 | > 1000 µM | – | O=C(O)C12CC3CC4C5CC(CC41)CC2C5C3 [MDT-38] | –
13 | 8 ± 0.9 µM | 0.091 | Cl.NCC12CC3C4CC5CC3C(C1)C(C5)C4C2 [MDT-61] | –
14 | 9.8 ± 4.5 µM | 0.074 | NCC12CC3CC4C5CC(CC41)CC2C5C3 [MDT-56] | –
15 | 3.9 ± 0.2 µM | 0.187 | mixture of 1-methyl-2-aminodiamantane and 1-methyl-6-aminodiamantane [MDT-31] | –
16 | 5.1 ± 0.3 µM | 0.143 | CC12CC3C4CC5(C)CC3C(C1)C(CN)(C5)C4C2 [MDT-63] | –
17 | > 1000 µM | – | CC12CC3CC4C1CC1(C(=O)O)CC2C(C3)C4(C)C1 [MDT-46, 1,6-dimethyl-4-diamantanecarboxylic acid] | –
18 | 112 ± 14 µM | 0.007 | CC12CC3C4CC5(C)CC(C(C1)C3(N)C5)C4(N)C2 [MDT-53, 4,9-dimethyl-1,6-diaminodiamantane] | –
19 | – | 0.052 | 3-amino-triamantane [MDT-48] | Ki (NMDA receptor; [3]): 14 µM
20 | > 1000 µM | – | O=C1C2CC3C4CC5CC3C1C(C5)C4C2 [MDT-59] | –
21 | > 1000 µM | – | OC12C3CC4CC5C3CC3C6CC(CC31)CC2(C4)C56 [MDT-40] | –
22 | 41 ± 10.7 µM | 0.018 | CC12CC3CC4C1CC1(N)CC2C(C3)C4(N)C1 [MDT-29] | –
23 | > 1000 µM | – | O=C(O)C12CC3CC4C1CC1CC2C(C3)C4(C(=O)O)C1 [MDT-39] | –
24 | > 1000 µM | – | mixture of 4-methyl-9-aminodiamantane and 4-aminodiamantane [MDT-34] | –
25 | 4 ± 0.1 µM | 0.183 | CC(N)C12CC3CC4C5CC(CC41)CC2C5C3 (centres unmarked) [MDT-57] | –
26 | > 1000 µM | – | CC12CC3CC4C1CC1CC2C(O)(C3)C4(C)C1 (centres unmarked) [MDT-44, 1,6-dimethyl-2-hydroxydiamantane] | –

Second part, the compound before the results:

Row | Compound | Ki (NMDA receptor; [2]) | Relative affinity (NMDA receptor) | further results
27 | O=NC12CC3CC4C5CC(CC41)CC2C5C3 [MDT-26] | > 1000 µM | – | –
28 | NC12CC3C4CC5(N)CC3C(C1)C(C5)C4C2 [MDT-5] | 268 ± 19 µM | 0.003 | –
29 | NC12CC3CC4C5CC(CC41)CC2C5C3 [MDT-2] | 6.4 ± 0.13 µM | 0.114 | –
30 | NC12CC3CC4C5CC(CC41)CC2C5C3 [MDT #2] | – | – | % (Control Wash = 100) [1, 4]: 118%; Secreted LDH (Avg) [1, 4]: 0.23; Secreted/(total + secreted) (Avg) [1, 4]: 6.93; Total LDH (Avg) [1, 4]: 3.09
31 | 1,6-dimethyl-4-aminodiamantane mixture [MDT-7] | 9.9 ± 0.45 µM | 0.074 | –
32 | CC12CC3CC4C1CC1(N)CC2C(C3)C4(C)C1 [MDT-23 (prep from Example 4)] | 3.9 ± 0.07 µM | 0.187 | –
33 | OC12CC3C4CC5(O)CC3C(C1)C(C5)C4C2 [MDT-14] | > 1000 µM | – | –
34 | NC12CC3CC4C5CC(CC41)CC2C5C3 [MDT #1] | – | – | % (Control Wash = 100) [1, 4]: 99%; Secreted LDH (Avg) [1, 4]: 0.18; Secreted/(total + secreted) (Avg) [1, 4]: 5.81; Total LDH (Avg) [1, 4]: 2.96
35 | NC12CC3CC4C5CC(CC41)CC2C5C3 [MDT-1] | 7.5 ± 2.4 µM | 0.097 | –
36 | OC12CC3CC4C5CC(CC41)CC2C5C3 [MDT-10] | > 1000 µM | – | –
37 | 1,6-dimethyl-2-aminodiamantane mixture [MDT-6] | 4.6 ± 0.18 µM | 0.159 | –
38 | OC12CC3CC4C1CC1CC4C(O)(C3)C2C1 [MDT #13] | – | – | % (Control Wash = 100) [1, 5]: 139%; Secreted LDH (Avg) [1, 5]: 0.54; Secreted/(total + secreted) (Avg) [1, 5]: 15.25; Total LDH (Avg) [1, 5]: 2.99; % (Control Wash = 100) [1, 6]: 276%; Secreted LDH (Avg) [1, 6]: 0.85; Secreted/(total + secreted) (Avg) [1, 6]: 19.97; Total LDH (Avg) [1, 6]: 3.41
39 | CC12CC3CC4C1CC1(N)CC2C(C3)C4(C)C1 [MDT-23 (prep from Example 5)] | 3 ± 0.9 µM | 0.243 | –
40 | CC12CC3(N)CC4C5CC(CC41)CC2C5C3 (single isomer, unassigned) [MDT-22 (prep from Example 7)] | 10.5 ± 1 µM | 0.070 | –
41 | CC12CC3CC4C1CC1(N)CC2C(C3)C4(C)C1 [MDT-33, 1,6-dimethyl-4-aminodiamantane] | 7.8 ± 0.9 µM | 0.094 | –
42 | NC12CC3CC4C1CC1CC2C(C3)C4(N)C1 [MDT-4] | 99.6 ± 7.6 µM | 0.007 | –
43 | O=NC12CC3C4CC5CC3C(C1)C(C5)C4C2 [MDT-27] | > 1000 µM | – | –
44 | OC12CC3C4CC5C6CC7(O)CC5C(C4C1)C(C2)(C7)C36 [MDT-15] | > 1000 µM | – | –
45 | NC12CC3C4CC5(N)CC3C(C1)C(C5)C4C2 [MDT #5] | – | – | % (Control Wash = 100) [1, 4]: 123%; Secreted LDH (Avg) [1, 4]: 0.25; Secreted/(total + secreted) (Avg) [1, 4]: 7.21; Total LDH (Avg) [1, 4]: 3.27
46 | OC12CC3C4CC5CC3C(C1)C(C5)C4C2 [MDT-11] | > 1000 µM | – | –
47 | CC12CC3(N)CC4C5CC(CC41)CC2C5C3 (single isomer, unassigned) [MDT-22 (prep from Example 4)] | 2.2 ± 0.9 µM | 0.332 | –
48 | OC12CC3CC4C1CC1CC4C(O)(C3)C2C1 [MDT-13] | > 1000 µM | – | –
